How the values were obtained:
[1] = biological target: T1, PCC7942_orf1594 protein (acyl-ACP reductase) (Synechococcus elongatus, UniProt Q54765); assay: acyl-ACP or acyl-CoA reductase enzyme assay with purified PCC7942_orf1594 protein; assay type: biochemical, Synechococcus elongatus PCC7942; conditions: for reduction of acyl substrate to fatty aldehyde by PCC7942_orf1594: GC/MS detection of octadecanal/octadecenal, NADPH and divalent cation required
T1 construct: His-tag (C); made in house; host or cells: E. coli BL21 (DE3)
T1 sequence (Q54765 1-341): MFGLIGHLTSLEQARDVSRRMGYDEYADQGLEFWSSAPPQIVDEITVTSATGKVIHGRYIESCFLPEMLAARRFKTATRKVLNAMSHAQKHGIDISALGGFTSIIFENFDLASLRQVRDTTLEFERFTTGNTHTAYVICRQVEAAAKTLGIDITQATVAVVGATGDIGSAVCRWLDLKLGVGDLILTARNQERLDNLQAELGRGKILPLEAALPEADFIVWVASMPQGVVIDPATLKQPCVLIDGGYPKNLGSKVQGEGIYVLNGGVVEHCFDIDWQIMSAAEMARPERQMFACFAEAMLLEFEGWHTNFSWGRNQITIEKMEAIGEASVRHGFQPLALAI
Protocol: The genomic DNA encoding S. elongatus […] orf1594 (SEQ ID NO:65) was cloned into the NcoI and XhoI sites of vector pET-28b under the control of the T7 promoter. The resulting PCC7942_orf1594 protein contained a C-terminal His-tag. An E. coli BL21 strain (DE3) (Invitrogen) was transformed with the plasmid and PCC7942_orf1594 protein was expressed and purified as described in Example 22. The protein solution was stored in the following buffer: 50 mM sodium phosphate, pH 7.5, 100 mM NaCl, 1 mM THP, 10% glycerol. Protein concentration was determined using the Bradford assay (Biorad). 2 mg/mL of PCC7942_orf1594 protein was obtained.
To test PCC7942_orf1594 protein for acyl-ACP or acyl-CoA reductase activity, the following enzyme assays were set-up. 100 μL reactions were set-up in 50 mM Tris-HCl buffer at pH 7.5 with the following components at their respective final concentrations: 10 μM of purified PCC7942_orf1594 protein, 0.01-1 mM acyl-CoA or acyl-ACP, 2 mM MgCl2, 0.2-2 mM NADPH. The reactions were incubated for 1 h at 37° C. and where stopped by adding 100 μL ethyl acetate (containing 5 mg/l 1-octadecene as internal standard). Samples were vortexed for 15 min and centrifuged at max speed for 3 min for phase separation. 80 μL of the top layer were transferred into GC glass vials and analyzed by GC/MS as described in Example 26. The amount of aldehyde formed was calculated based on the internal standard.

[2] = biological target: T2, Npun02004178 protein (fatty aldehyde decarbonylase) (Nostoc punctiforme, UniProt B2J1M1); assay: in-vitro fatty aldehyde decarbonylase assay with purified Npun02004178 protein; assay type: biochemical, Nostoc punctiforme PCC73102; conditions: 200 μM octadecanal, 30 μM Npun02004178, spinach ferredoxin, ferredoxin reductase and NADPH; 37° C., 2 h
T2 construct: His-tag (N); made in house; host or cells: E. coli BL21 (DE3)
T2 sequence (B2J1M1 1-232): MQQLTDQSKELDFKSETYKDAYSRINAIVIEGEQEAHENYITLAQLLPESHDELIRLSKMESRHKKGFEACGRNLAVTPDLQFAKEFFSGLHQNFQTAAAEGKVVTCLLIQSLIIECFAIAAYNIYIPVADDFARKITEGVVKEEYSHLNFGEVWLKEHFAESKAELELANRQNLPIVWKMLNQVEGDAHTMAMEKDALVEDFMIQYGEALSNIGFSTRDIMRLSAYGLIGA
Protocol: The genomic DNA encoding N. punctiforme PCC73102 Npun02004178 (SEQ ID NO:5) was cloned into the NdeI and XhoI sites of vector pET-15b under the control of the T7 promoter. The resulting Npun02004178 protein contained an N-terminal His-tag. An E. coli BL21 strain (DE3) (Invitrogen) was transformed with the plasmid by routine chemical transformation techniques. Protein expression was carried out by first inoculating a colony of the E. coli strain in 5 mL of LB media supplemented with 100 mg/L of carbenicillin and shaken overnight at 37° C. to produce a starter culture. This starter cultures was used to inoculate 0.5 L of LB media supplemented with 100 mg/L of carbenecillin. […] Protein concentration was determined using the Bradford assay (Biorad). […]
To test Npun02004178 protein for decarbonylation activity, the following enzyme assays were set-up. […] Samples were analyzed by GC/MS using the following parameters: run time: 13.13 min; column: HP-5-MS Part No. 19091S-433E (length of 30 meters; I.D.: 0.25 mm narrowbore; film: 0.25 iM); inject: 1 ii Agilent 6850 inlet; inlet: 300 C splitless; carrier gas: helium; flow: 1.3 mL/min; oven temp: 75° C. hold 5 min, 320 at 40° C./min, 320 hold 2 min; det: Agilent 5975B VL MSD; det. temp: 330° C.; scan: 50-550 M/Z. Heptadecane from Sigma was used as an authentic reference for determining compound retention time and fragmentation pattern. […]

Compound	reduction of acyl substrate to fatty aldehyde by PCC7942_orf1594 [1]	further results
NC(=O)C1=CN([C@@H]2O[C@H](COP(=O)(O)OP(=O)(O)OC[C@H]3O[C@@H](n4cnc5c(N)ncnc54)[C@H](O)[C@@H]3O)[C@@H](O)[C@H]2O)C=CC1 [NADH, reference compound]		support of reductase activity as electron donor ([1]; octadecanoyl-CoA as substrate, Mg2+): did not support reductase activity
NC(=O)C1=CN([C@@H]2O[C@H](COP(=O)(O)OP(=O)(O)OC[C@H]3O[C@@H](n4cnc5c(N)ncnc54)[C@H](OP(=O)(O)O)[C@@H]3O)[C@@H](O)[C@H]2O)C=CC1 [NADPH, reference compound]		Km ([1]; in the presence of 0.5 mM octadecanoyl-CoA, read-out: Km value for NADPH): 400 ± 80 µM
CCCCCCCCCCCCCCCCCC=O [octadecanal]		in-vitro decarbonylation to heptadecane [2]: in-vitro conversion of octadecanal to heptadecane was observed
CCCCCCCCCCCCCCCCCC(=O)SCCNC(=O)CCNC(=O)[C@H](O)C(C)(C)COP(=O)(O)OP(=O)(O)OC[C@H]1O[C@@H](n2cnc3c(N)ncnc32)[C@H](O)[C@@H]1OP(=O)(O)O [octadecanoyl-CoA]	able to reduce octadecanoyl-CoA to octadecanal	
octadecenoyl-ACP	also able to reduce	
octadecenoyl-CoA	also able to reduce	

— patent US9670512B2, “Methods and compositions for producing fatty alcohols or fatty aldehydes” (REG Life Sciences, LLC, priority 2008, dated 2017)
